Like-named read-outs stand apart in the source and are kept apart here.
What was measured:
Experiment in all cases: Cellular growth inhibition (CellTiter Glo viability assay)
Format in all cases: cell-based
H157 NSCLC cell line = settings: Homo sapiens
H1395 NSCLC cell line = settings: Homo sapiens
HCC78 NSCLC cell line = settings: Homo sapiens
H322M NSCLC cell line = settings: Homo sapiens, NCI-H322M
H2030 NSCLC cell line = settings: Homo sapiens
H2009 NSCLC cell line = settings: Homo sapiens
H460 NSCLC cell line = settings: Homo sapiens
H1666 NSCLC cell line = settings: Homo sapiens
H520 NSCLC cell line = settings: Homo sapiens
Calu6 NSCLC cell line = settings: Homo sapiens
LouNH91 NSCLC cell line = settings: Homo sapiens
HCC2279 NSCLC cell line = settings: Homo sapiens
H1648 NSCLC cell line = settings: Homo sapiens
H2172 NSCLC cell line = settings: Homo sapiens
HCC366 NSCLC cell line = settings: Homo sapiens
H2077 NSCLC cell line = settings: Homo sapiens
HCC4006 NSCLC cell line = settings: Homo sapiens
PC9 NSCLC cell line = settings: Homo sapiens
[1] = read-out: Sensitivity Bosutinib
[2] = 96 h, read-out: GI50 this paper

Work on COc1cc(Nc2c(C#N)cnc3cc(OCCCN4CCN(C)CC4)c(OC)cc23)c(Cl)cc1Cl [bosutinib, 4-(2,4-dichloro-5-methoxyphenylamino)-6-methoxy-7-(3-(4-methylpiperazin-1-yl)propoxy)quinoline-3-carbonitrile] yielded a GI50 (H157 NSCLC cell line; NCI-H157, 96 h) of 1810 nM, an IC50 (H157 NSCLC cell line; NCI-H157, read-out: Sensitivity Bosutinib) of over 1500 nM and a GI50 (H1395 NSCLC cell line; NCI-H1395, 96 h) of 4.72 µM. It also gave an IC50 (H1395 NSCLC cell line; NCI-H1395, read-out: Sensitivity Bosutinib) of over 1500 nM, a GI50 (HCC78 NSCLC cell line; HCC78, 96 h) of 3.04 µM and an IC50 (HCC78 NSCLC cell line; HCC78, read-out: Sensitivity Bosutinib) of over 1500 nM. It also gave a GI50 (H322M NSCLC cell line; 96 h) of 528 nM, an IC50 (H322M NSCLC cell line; [1]) of under 1500 nM and a GI50 (H2030 NSCLC cell line; NCI-H2030, 96 h) of 896 nM. It also gave an IC50 (H2030 NSCLC cell line; NCI-H2030, read-out: Sensitivity Bosutinib) of under 1500 nM, a GI50 (H2009 NSCLC cell line; NCI-H2009, 96 h) of 2330 nM and an IC50 (H2009 NSCLC cell line; NCI-H2009, read-out: Sensitivity Bosutinib) of over 1500 nM. The GI50 (H460 NSCLC cell line; NCI-H460, 96 h) was 1.37 µM, the IC50 (H460 NSCLC cell line; NCI-H460, read-out: Sensitivity Bosutinib) was under 1500 nM and the GI50 (H1666 NSCLC cell line; NCI-H1666, 96 h) was 1080 nM. For the same molecule, the IC50 (H1666 NSCLC cell line; NCI-H1666, read-out: Sensitivity Bosutinib) was under 1500 nM, the GI50 (H520 NSCLC cell line; NCI-H520, 96 h) was 2640 nM and the IC50 (H520 NSCLC cell line; NCI-H520, read-out: Sensitivity Bosutinib) was over 1500 nM. It also gave a GI50 (Calu6 NSCLC cell line; Calu-6, 96 h) of 2130 nM, an IC50 (Calu6 NSCLC cell line; Calu-6, read-out: Sensitivity Bosutinib) of over 1500 nM and a GI50 (LouNH91 NSCLC cell line; LOU-NH91, 96 h) of 186 nM. It also gave an IC50 (LouNH91 NSCLC cell line; LOU-NH91, read-out: Sensitivity Bosutinib) of under 1500 nM, a GI50 (HCC2279 NSCLC cell line; 96 h) of 3250 nM and an IC50 (HCC2279 NSCLC cell line; [1]) of over 1500 nM. It also gave a GI50 (H1648 NSCLC cell line; NCI-H1648, 96 h) of 3720 nM, an IC50 (H1648 NSCLC cell line; NCI-H1648, read-out: Sensitivity Bosutinib) of over 1500 nM and a GI50 (H2172 NSCLC cell line; NCI-H2172, 96 h) of 2.59 µM. For the same molecule, the IC50 (H2172 NSCLC cell line; NCI-H2172, read-out: Sensitivity Bosutinib) was over 1500 nM, the GI50 (HCC366 NSCLC cell line; HCC366, 96 h) was 1270 nM and the IC50 (HCC366 NSCLC cell line; HCC366, read-out: Sensitivity Bosutinib) was under 1500 nM. The GI50 (H2077 NSCLC cell line; 96 h) was 3.79 µM, the IC50 (H2077 NSCLC cell line; [1]) was over 1500 nM and the GI50 (HCC4006 NSCLC cell line; HCC4006, 96 h) was 120 nM. The IC50 (HCC4006 NSCLC cell line; HCC4006, read-out: Sensitivity Bosutinib) was under 1500 nM, the GI50 (PC9 NSCLC cell line; 96 h) was 234 nM and the IC50 (PC9 NSCLC cell line; PC-9, read-out: Sensitivity Bosutinib) was under 1500 nM.

Work on Cc1nc(Nc2ncc(C(=O)Nc3c(C)cccc3Cl)s2)cc(N2CCN(CCO)CC2)n1 [dasatinib, N-(2-chloro-6-methylphenyl)-2-[[6-[4-(2-hydroxyethyl)piperazin-1-yl]-2-methylpyrimidin-4-yl]amino]-1,3-thiazole-5-carboxamide] yielded a GI50 (H157 NSCLC cell line; NCI-H157, 96 h, read-out: GI50 this paper) of 2630 nM, an IC50 (H157 NSCLC cell line; NCI-H157, read-out: Sensitivity Dasatinib) of over 1000 nM and a GI50 (H157 NSCLC cell line; NCI-H157, H157, 96 hours of treatment, read-out: GI50) of 2630 nM. The GI50 (H1395 NSCLC cell line; NCI-H1395, 96 h, read-out: GI50 this paper) was 4.7 µM, the IC50 (H1395 NSCLC cell line; NCI-H1395, read-out: Sensitivity Dasatinib) was over 1000 nM and the GI50 (H1395 NSCLC cell line; NCI-H1395, H1395, 96 hours of treatment, read-out: GI50) was 4.7 µM. The GI50 (HCC78 NSCLC cell line; HCC78, 96 h, read-out: GI50 this paper) was 17.1 µM, the IC50 (HCC78 NSCLC cell line; HCC78, read-out: Sensitivity Dasatinib) was over 1000 nM and the GI50 (HCC78 NSCLC cell line; HCC78, 96 hours of treatment, read-out: GI50) was 17.1 µM. For the same molecule, the GI50 (H322M NSCLC cell line; [2]) was 311 nM, the IC50 (H322M NSCLC cell line; read-out: Sensitivity Dasatinib) was under 1000 nM and the GI50 (H322M NSCLC cell line; H322M, 96 hours of treatment, read-out: GI50) was 311 nM. It also gave a GI50 (H2030 NSCLC cell line; NCI-H2030, 96 h, read-out: GI50 this paper) of 22 nM, an IC50 (H2030 NSCLC cell line; NCI-H2030, read-out: Sensitivity Dasatinib) of under 1000 nM and a GI50 (H2030 NSCLC cell line; NCI-H2030, H2030, 96 hours of treatment, read-out: GI50) of 22 nM. The GI50 (H2009 NSCLC cell line; NCI-H2009, 96 h, read-out: GI50 this paper) was 85 nM, the IC50 (H2009 NSCLC cell line; NCI-H2009, read-out: Sensitivity Dasatinib) was under 1000 nM and the GI50 (H2009 NSCLC cell line; NCI-H2009, H2009, 96 hours of treatment, read-out: GI50) was 85 nM. The GI50 (H460 NSCLC cell line; NCI-H460, 96 h, read-out: GI50 this paper) was 3.9 µM, the IC50 (H460 NSCLC cell line; NCI-H460, read-out: Sensitivity Dasatinib) was over 1000 nM and the GI50 (H460 NSCLC cell line; NCI-H460, H460, 96 hours of treatment, read-out: GI50) was 3.9 µM. For the same molecule, the GI50 (H1666 NSCLC cell line; NCI-H1666, 96 h, read-out: GI50 this paper) was 76 nM, the IC50 (H1666 NSCLC cell line; NCI-H1666, read-out: Sensitivity Dasatinib) was under 1000 nM and the GI50 (H1666 NSCLC cell line; NCI-H1666, H1666, 96 hours of treatment, read-out: GI50) was 76 nM. The GI50 (H520 NSCLC cell line; NCI-H520, 96 h, read-out: GI50 this paper) was 1430 nM, the IC50 (H520 NSCLC cell line; NCI-H520, read-out: Sensitivity Dasatinib) was over 1000 nM and the GI50 (H520 NSCLC cell line; NCI-H520, H520, 96 hours of treatment, read-out: GI50) was 1430 nM. For the same molecule, the GI50 (Calu6 NSCLC cell line; Calu-6, 96 h, read-out: GI50 this paper) was 2800 nM, the IC50 (Calu6 NSCLC cell line; Calu-6, read-out: Sensitivity Dasatinib) was over 1000 nM and the GI50 (Calu6 NSCLC cell line; Calu-6, 96 hours of treatment, read-out: GI50) was 2800 nM. For the same molecule, the GI50 (LouNH91 NSCLC cell line; LOU-NH91, 96 h, read-out: GI50 this paper) was 68 nM, the IC50 (LouNH91 NSCLC cell line; LOU-NH91, read-out: Sensitivity Dasatinib, LouNH91) was under 1000 nM and the GI50 (LouNH91 NSCLC cell line; LOU-NH91, LouNH91, 96 hours of treatment, read-out: GI50) was 68 nM. It also gave a GI50 (HCC2279 NSCLC cell line; [2]) of 45 nM, an IC50 (HCC2279 NSCLC cell line; read-out: Sensitivity Dasatinib, HCC2279) of under 1000 nM and a GI50 (HCC2279 NSCLC cell line; HCC2279, 96 hours of treatment, read-out: GI50) of 45 nM. For the same molecule, the GI50 (H1648 NSCLC cell line; NCI-H1648, 96 h, read-out: GI50 this paper) was 79 nM, the IC50 (H1648 NSCLC cell line; NCI-H1648, read-out: Sensitivity Dasatinib) was under 1000 nM and the GI50 (H1648 NSCLC cell line; NCI-H1648, H1648, 96 hours of treatment, read-out: GI50) was 79 nM. For the same molecule, the GI50 (H2172 NSCLC cell line; NCI-H2172, 96 h, read-out: GI50 this paper) was 5.85 µM, the IC50 (H2172 NSCLC cell line; NCI-H2172, read-out: Sensitivity Dasatinib) was over 1000 nM and the GI50 (H2172 NSCLC cell line; NCI-H2172, H2172, 96 hours of treatment, read-out: GI50) was 5.85 µM. It also gave a GI50 (HCC366 NSCLC cell line; HCC366, 96 h, read-out: GI50 this paper) of 17 nM, an IC50 (HCC366 NSCLC cell line; HCC366, read-out: Sensitivity Dasatinib) of under 1000 nM and a GI50 (HCC366 NSCLC cell line; HCC366, 96 hours of treatment, read-out: GI50) of 17 nM. It also gave a GI50 (H2077 NSCLC cell line; [2]) of 4.75 µM, an IC50 (H2077 NSCLC cell line; read-out: Sensitivity Dasatinib, H2077) of over 1000 nM and a GI50 (H2077 NSCLC cell line; H2077, 96 hours of treatment, read-out: GI50) of 4.75 µM. For the same molecule, the GI50 (HCC4006 NSCLC cell line; HCC4006, 96 h, read-out: GI50 this paper) was 950 nM, the IC50 (HCC4006 NSCLC cell line; HCC4006, read-out: Sensitivity Dasatinib) was under 1000 nM and the GI50 (HCC4006 NSCLC cell line; HCC4006, 96 hours of treatment, read-out: GI50) was 950 nM. It also gave a GI50 (PC9 NSCLC cell line; [2]) of 20 nM, an IC50 (PC9 NSCLC cell line; PC-9, read-out: Sensitivity Dasatinib, PC9) of under 1000 nM and a GI50 (PC9 NSCLC cell line; PC9, 96 hours of treatment, read-out: GI50) of 20 nM.

— US9328386B2, “Markers for susceptibility to an inhibitor of an Src-family kinase” (Evotec (München) GmbH, priority 2011, dated 2016)
